The results in this text go back to ChEMBL document CHEMBL5046255, “Design and synthesis of dual inhibitors targeting snail and histone deacetylase for the treatment of solid tumour cancer” (Eur J Med Chem, 2022).

Where only a bound is given, the exact number is not on record here.

One series has as its target Histone deacetylase 1 (Homo sapiens, UniProt Q13547). Put plainly: Inhibition of HDAC1 (unknown origin) using p53 (379 to 382 residues) (RHKK(Ac-AMC) as fluorogenic substrate incubated for 1 hrs by fluorescence based assay.
For series [1], the system named is HCT-116. The series is described as follows: Antiproliferative activity against human HCT-116 cells assessed as cell viability at 1 uM incubated for 72 hrs by luminescence assay. Type of series: functional, cell-based. As to conditions: for viability at 1 µM: HCT-116, dose 1 µM, time 72 hrs, read-out: Activity; for IC50: HCT-116, 72 h.
For series [2], the system named is HCT-116. Put plainly: Antiproliferative activity against human HCT-116 cells assessed as reduction in cell viability incubated for 72 hrs by luminescence assay. The note with it: HCT-116, 72 h. Type of series: functional, cell-based.
A short description of series [3]: Binding affinity to SNAI1 (unknown origin) assessed as dissociation constant. More on the design: species or system Homo sapiens.
A short description of series [4]: Metabolic stability in dog liver microsomes assessed as half life incubated for 10 mins by LC-MS/MS analysis. It is filed as ADME, Canis lupus familiaris, Microsome. Background: Liver microsomes are a subcellular fraction often used to study metabolism.
A short description of series [5]: Metabolic stability in human plasma assessed as parent compound remaining at 100 uM measured after 2 hrs by LC-MS/MS analysis. It is filed as ADME, cell-free. The note with it: read-out: Stability.
Series [6] can be described thus: Metabolic stability in monkey plasma assessed as parent compound remaining at 100 uM measured after 2 hrs by LC-MS/MS analysis. Type of series: ADME, cell-free, Macaca mulatta. As to conditions: rhesus monkey, read-out: Stability.
Series [7] is described as follows: Metabolic stability in rat liver microsomes assessed as half life incubated for 10 mins by LC-MS/MS analysis. Type of series: ADME, Microsome.
A short description of series [8]: Metabolic stability in dog plasma assessed as parent compound remaining at 100 uM measured after 2 hrs by LC-MS/MS analysis. As to conditions: read-out: Stability. Type of series: ADME, cell-free, Canis lupus familiaris.
Series [9] in a line: Metabolic stability in human liver microsomes assessed as intrinsic clearance incubated for 10 mins by LC-MS/MS analysis. Type of series: ADME, Microsome. As to conditions: read-out: CLH.
Series [10] is described as follows: Metabolic stability in dog plasma assessed as half life at 100 uM measured upto 120 mins by LC-MS/MS analysis. It is filed as ADME, cell-free, Canis lupus familiaris.
The nature of series [11]: Metabolic stability in monkey liver microsomes assessed as half life incubated for 10 mins by LC-MS/MS analysis. The note with it: rhesus monkey. Type of series: ADME, Macaca mulatta, Microsome.
Series [12] can be described thus: Metabolic stability in human liver microsomes assessed as half life incubated for 10 mins by LC-MS/MS analysis. It is filed as ADME, Microsome.
Series [13] is described as follows: Metabolic stability in rat plasma assessed as parent compound remaining at 100 uM measured after 2 hrs by LC-MS/MS analysis. It is filed as ADME, cell-free. As to conditions: read-out: Stability.
The nature of series [14]: Metabolic stability in dog liver microsomes assessed as intrinsic clearance incubated for 10 mins by LC-MS/MS analysis. It is filed as ADME, Canis lupus familiaris, Microsome. As to conditions: read-out: CLH.
Series [15] can be described thus: Metabolic stability in rat liver microsomes assessed as intrinsic clearance incubated for 10 mins by LC-MS/MS analysis. As to conditions: read-out: CLH. Type of series: ADME, Microsome.
Series [16] in a line: Metabolic stability in monkey liver microsomes assessed as intrinsic clearance incubated for 10 mins by LC-MS/MS analysis. It is filed as ADME, Macaca mulatta, Microsome. As to conditions: rhesus monkey, read-out: CLH.
Series [17] is described as follows: Metabolic stability in rat plasma assessed as half life at 100 uM measured upto 120 mins by LC-MS/MS analysis. It is filed as ADME, cell-free.

Sequence of Histone deacetylase 1 (Q13547 whole entry, the tested form may be a part): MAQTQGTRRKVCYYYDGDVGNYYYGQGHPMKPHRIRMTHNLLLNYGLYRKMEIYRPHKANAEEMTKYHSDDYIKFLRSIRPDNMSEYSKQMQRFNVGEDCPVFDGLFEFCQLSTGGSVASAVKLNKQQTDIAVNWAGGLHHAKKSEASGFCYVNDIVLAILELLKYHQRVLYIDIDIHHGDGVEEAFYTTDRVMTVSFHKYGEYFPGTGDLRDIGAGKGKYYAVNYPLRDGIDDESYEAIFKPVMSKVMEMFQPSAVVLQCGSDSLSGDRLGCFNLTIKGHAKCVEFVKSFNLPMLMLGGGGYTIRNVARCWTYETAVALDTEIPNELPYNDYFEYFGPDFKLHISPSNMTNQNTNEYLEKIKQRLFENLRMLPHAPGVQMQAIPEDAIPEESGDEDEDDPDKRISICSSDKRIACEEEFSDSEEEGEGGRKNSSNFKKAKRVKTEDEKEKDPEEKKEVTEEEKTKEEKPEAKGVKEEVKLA

A word on the IC50: it is the concentration at which inhibition is half-maximal. For the compound `Nc1ccccc1NC(=O)c1ccc(CSc2nc(NCc3ccc(C(F)(F)F)cc3)c3cccn3n2)cc1`, half-maximal inhibition at Histone deacetylase 1 (IC50) was put at 1730 nM. In the series with HCT-116 [1], the viability at 1 µM came out at 102%.
The like results for `COc1ccc(CNc2nc(SCc3ccc(C(=O)Nc4ccccc4N)cc3)nn3cccc23)cc1OC` were, in that order, 406 nM and 73.9%.
Broadly, the Kd is a measure of binding affinity in units of concentration. In the case of `Nc1ccccc1NC(=O)c1ccc(CSc2nc(Nc3cc[nH]n3)c3cccn3n2)cc1`, the IC50 on Histone deacetylase 1 was found to be 148 nM; with HCT-116 [2] it was 1550 nM. Besides, the viability at 1 µM in the series on HCT-116 [1] amounted to 60.3%. In addition, the Kd in series [3] turned out to be 984 nM.
Compound `Nc1ccccc1NC(=O)c1ccc(CSc2nc(NC3CCNCC3)c3cccn3n2)cc1` registered an IC50 on Histone deacetylase 1 of 493 nM. The viability at 1 µM in the series on HCT-116 [1] was found to be 78.5%.
Taken in the same sequence, the figures for `Nc1cc(F)ccc1NC(=O)c1ccc(CSc2nc(NC3CCNCC3)c3cccn3n2)cc1` were 2370 nM and 95.8%.
For `Nc1cc(F)ccc1NC(=O)c1ccc(CSc2nc(Nc3cc[nH]n3)c3cccn3n2)cc1`, the figures for the IC50 against Histone deacetylase 1 and in the series on HCT-116 [1] were 595 nM and 731 nM, respectively. In addition, the Kd in [3] turned out to be 426 nM.
For `COc1ccc(CNc2nc(SCc3ccc(C(=O)Nc4ccc(F)cc4N)cc3)nn3cccc23)cc1OC`, the concentration for half-maximal inhibition (IC50) against Histone deacetylase 1 came to 8160 nM. The viability at 1 µM in the series on HCT-116 [1] came out at 73.9%.
As to `Cc1cccnc1Nc1nc(SCc2ccc(C(=O)Nc3ccccc3N)cc2)nn2cccc12`, the values for the IC50 at Histone deacetylase 1 and in the series on HCT-116 [1] were 204 nM and 1370 nM, respectively. In series [3], the Kd came to 945 nM.
As to `COc1ccc(CNc2nc(SCc3ccc(C(=O)Nc4ccccc4N)cc3)nn3cccc23)cc1`, the figures for the IC50 at Histone deacetylase 1 and with HCT-116 [1] were 392 nM and 292 nM, respectively. In addition, the Kd in series [3] came out at 356 nM.
For the compound `CC(C)(C)OC(=O)N1CCC(Nc2nc(SCc3ccc(C(=O)Nc4ccc(F)cc4N)cc3)nn3cccc23)CC1`, the midpoint of inhibition against Histone deacetylase 1, the IC50, lay at 4500 nM. In addition, the viability at 1 µM in the series with HCT-116 [1] worked out at 105%.
Regarding `CC(C)(C)OC(=O)N1CCC(Nc2nc(SCc3ccc(C(=O)Nc4ccccc4N)cc3)nn3cccc23)CC1`, half-maximal inhibition against Histone deacetylase 1 (IC50) was put at 871 nM. Also, the viability at 1 µM in the series with HCT-116 [1] turned out to be 103%.
One may read the half-life as the time in which the quantity being followed falls by half. Consider `Nc1cc(F)ccc1NC(=O)c1ccc(CNC(=O)/C=C/c2cccnc2)cc1` [TUCIDINOSTAT], for which the half-life was determined as 8.37 h in series [4], 3.17 h in [7], 2.05 h in series [11] and 6.27 h in [12]. The remaining at 2 h, 100 µM in [5] was 109%; in series [6] it was 102%; in series [8], 103%; in series [13], 82.1%. Moreover, the microsomal CLint in series [9] is 4.18 µL/min/mg; in series [14], 2.76 µL/min/mg; in series [15], 7.35 µL/min/mg; in [16] it was 11.2 µL/min/mg. The half-life at 100 µM in [10] stood at 16.3 h; in [17], 8.83 h. The IC50 with HCT-116 [1] worked out at 2080 nM. The Kd in series [3] is greater than 10000 nM.
The compound `Nc1cc(F)ccc1NC(=O)c1ccc(CSc2nc(NCc3ccc(C(F)(F)F)cc3)c3cccn3n2)cc1` showed an IC50 against Histone deacetylase 1 greater than 10000 nM. The viability at 1 µM with HCT-116 [1] was found to be 107%.
Taken in the same sequence, the figures for `CC(C)(C)c1cc(Nc2nc(SCc3ccc(C(=O)Nc4ccccc4N)cc3)nn3cccc23)n[nH]1` were 238 nM and 96.1%.
As for `Nc1cc(F)ccc1NC(=O)c1ccc(CSc2nc(N3CCOCC3)c3cccn3n2)cc1`, the IC50 against Histone deacetylase 1 came out at 2310 nM; in the series on HCT-116 [1] it was 948 nM. Further, in series [3], the Kd was determined as 754 nM.
As to `Cc1cccnc1Nc1nc(SCc2ccc(C(=O)Nc3ccc(F)cc3N)cc2)nn2cccc12`, the IC50 turned out to be 1320 nM against Histone deacetylase 1 and 857 nM with HCT-116 [1]. Further, the Kd in series [3] was determined as 875 nM.
On to `Nc1ccccc1NC(=O)c1ccc(CSc2nc(NCc3ccc(F)cc3)c3cccn3n2)cc1`, for which the IC50 against Histone deacetylase 1 worked out at 481 nM. The viability at 1 µM with HCT-116 [1] was 83.1%.
Take `COc1ccc(CNc2nc(SCc3ccc(C(=O)Nc4ccc(F)cc4N)cc3)nn3cccc23)cc1`: the IC50 stood at 5040 nM against Histone deacetylase 1 and 997 nM with HCT-116 [1]. Moreover, the Kd in series [3] is 514 nM.
With `COc1ccc(CNc2nc(SCc3ccc(C(=O)Nc4ccccc4N)cc3)nn3cccc23)c(OC)c1`, the midpoint of inhibition against Histone deacetylase 1, the IC50, lay at 336 nM. For the same compound, the viability at 1 µM in the series on HCT-116 [1] is 92.5%.
Regarding `COc1ccc(CNc2nc(SCc3ccc(C(=O)Nc4ccc(F)cc4N)cc3)nn3cccc23)c(OC)c1`, on Histone deacetylase 1, the IC50 is greater than 10000 nM. Moreover, the viability at 1 µM in the series with HCT-116 [1] was found to be 92.5%.
The like results for `Nc1cc(F)ccc1NC(=O)c1ccc(CSc2nc(NCc3ccc(F)cc3)c3cccn3n2)cc1` were, in that order, greater than 10000 nM and 89.3%.
Turning to `Nc1ccccc1NC(=O)c1ccc(CSc2nc(N3CCOCC3)c3cccn3n2)cc1`, the IC50 against Histone deacetylase 1 came out at 204 nM; in the series on HCT-116 [1], 1090 nM. For the same compound, the Kd in series [3] was found to be 905 nM.
Regarding `CC(C)(C)c1cc(Nc2nc(SCc3ccc(C(=O)Nc4ccc(F)cc4N)cc3)nn3cccc23)n[nH]1`, the IC50 against Histone deacetylase 1 was found to be 1540 nM. Moreover, the viability at 1 µM in the series on HCT-116 [1] is 108%.
Regarding `Cc1cc(Nc2nc(SCc3ccc(C(=O)Nc4ccccc4N)cc3)nn3cccc23)n[nH]1`, the figures for the IC50 against Histone deacetylase 1 and in the series on HCT-116 [1] were 152 nM and 959 nM, respectively. Also, the Kd in [3] came out at 562 nM.
